Values of other authors, collected in patent publication US20070161542A1, “Ptb1b photoprobes” (priority 2003, published 2007).
Non-standard residues stand in square brackets, D forms with d. Residues, ends and D or L forms follow the SMILES beside them. *: point of attachment. F2Pmp = N[C@@H](Cc1ccc(C(F)(F)P(=O)(O)O)cc1)C(=O)O; Bz = O=C(c1ccccc1)*

Test system: PTP1B and TCPTP1B
Conditions: reference (23); cited from earlier work

Which inhibitor character does the source give for `NC(=O)[C@H](Cc1ccc(C(F)(F)P(=O)(O)O)cc1)NC(=O)[C@H](Cc1ccc(C(F)(F)P(=O)(O)O)cc1)NC(=O)[C@H](CCC(=O)O)NC(=O)c1ccccc1` [BzN-EJJ-AMIDE, N-benzoyl-L-glutamyl-[4-phosphono(difluoromethyl)]-L-phenylalanyl-[4-phosphono(difluoromethyl)]-L-phenylanalininamide] (Bz-Glu-[F2Pmp]-[F2Pmp]-NH2) here?
Its inhibitor character is “selective, potent inhibitor”.
